According to patent publication US8846746B2, “Pyrazole compound and pharmaceutical use thereof” (Japan Tobacco Inc., priority 2011, dated 2014):
pIC50: −log10 of the molar value.

Target: human SGLT1 (Homo sapiens (Human), UniProt P13866)
Assay: SGLT1 inhibitory activity: 14C-AMG uptake into CHO-K1 cell line stably expressing human SGLT1
Assay type: cell-based
Conditions: 14C-AMG uptake, CHO-K1 cells stably expressing human SGLT1
Method in brief: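 Human SGLT1 was stably expressed in CHO-K1 cells. Cells were first held 20 min in sodium-free buffer, then exposed to compound in Na(+)/BSA buffer with tracer and AMG (2 mM in the added solution).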

Sequence of human SGLT1 (P13866 whole entry): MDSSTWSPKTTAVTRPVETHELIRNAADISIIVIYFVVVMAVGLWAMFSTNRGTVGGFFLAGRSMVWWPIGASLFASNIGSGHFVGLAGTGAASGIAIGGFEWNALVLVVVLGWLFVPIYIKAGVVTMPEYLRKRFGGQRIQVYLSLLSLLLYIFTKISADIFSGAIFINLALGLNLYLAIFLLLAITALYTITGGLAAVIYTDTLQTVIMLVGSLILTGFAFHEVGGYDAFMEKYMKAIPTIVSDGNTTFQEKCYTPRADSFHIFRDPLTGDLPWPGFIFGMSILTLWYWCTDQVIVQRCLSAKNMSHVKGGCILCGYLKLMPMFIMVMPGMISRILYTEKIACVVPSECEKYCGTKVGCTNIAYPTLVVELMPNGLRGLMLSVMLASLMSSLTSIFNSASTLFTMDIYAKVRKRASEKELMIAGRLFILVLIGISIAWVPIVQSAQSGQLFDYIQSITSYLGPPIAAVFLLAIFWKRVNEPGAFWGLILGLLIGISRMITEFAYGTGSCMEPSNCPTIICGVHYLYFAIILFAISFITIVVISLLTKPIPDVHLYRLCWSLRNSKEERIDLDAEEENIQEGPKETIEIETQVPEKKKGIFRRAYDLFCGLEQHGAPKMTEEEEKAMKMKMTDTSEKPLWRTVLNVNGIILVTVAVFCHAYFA

| SMILES | pIC50 |
| --- | --- |
| COc1cccc(-n2nc(NC(=O)[C@@H]3CNC(=O)C3)cc2-c2cccc(CO[C@H](C)C(F)(F)F)c2)c1 [Example 451] | 8.48 |
| CCOc1cccc(-n2nc(NC(=O)[C@@H]3CNC(=O)C3)cc2-c2cccc(CO[C@H](C)C(F)(F)F)c2)c1 [Example 452] | 8.77 |
| CCCOc1cccc(-n2nc(NC(=O)[C@@H]3CNC(=O)C3)cc2-c2cccc(CO[C@H](C)C(F)(F)F)c2)c1 [Example 453] | 8.77 |
| CC(C)Oc1cccc(-n2nc(NC(=O)[C@@H]3CNC(=O)C3)cc2-c2cccc(CO[C@H](C)C(F)(F)F)c2)c1 [Example 454] | 8.70 |
| COCCOc1cccc(-n2nc(NC(=O)[C@@H]3CNC(=O)C3)cc2-c2cccc(CO[C@H](C)C(F)(F)F)c2)c1 [Example 455] | 8.51 |
| COCCOc1cc(-n2nc(NC(=O)[C@@H]3CNC(=O)C3)cc2-c2cccc(CO[C@H](C)C(F)(F)F)c2)ccc1F [Example 456] | 8.47 |
| COc1cc(-n2nc(NC(=O)[C@@H]3CNC(=O)C3)cc2-c2cccc(CO[C@H](C)C(F)(F)F)c2)ccc1F [Example 457] | 8.43 |
| CCCc1cccc(-c2cc(NC(=O)[C@@H]3CNC(=O)C3)nn2-c2cccc(COC(C)C)c2)c1 [Example 459] | 8.32 |
| CCOc1ccc(F)c(-n2nc(NC(=O)[C@@H]3CNC(=O)C3)cc2-c2cccc(COCC(F)(F)F)c2)c1 [Example 460] | 8.68 |
| CC(C)Oc1ccc(F)c(-n2nc(NC(=O)[C@@H]3CNC(=O)C3)cc2-c2cccc(COCC(F)(F)F)c2)c1 [Example 461] | 8.85 |
| COCCOc1ccc(F)c(-n2nc(NC(=O)[C@@H]3CNC(=O)C3)cc2-c2cccc(COCC(F)(F)F)c2)c1 [Example 462] | 8.47 |
| CCOc1ccc(F)c(-n2nc(NC(=O)[C@@H]3CNC(=O)C3)cc2-c2cccc(CO[C@H](C)C(F)(F)F)c2)c1 [Example 463] | 8.96 |
| CC(C)Oc1ccc(F)c(-n2nc(NC(=O)[C@@H]3CNC(=O)C3)cc2-c2cccc(CO[C@H](C)C(F)(F)F)c2)c1 [Example 464] | 8.85 |
| COCCOc1ccc(F)c(-n2nc(NC(=O)[C@@H]3CNC(=O)C3)cc2-c2cccc(CO[C@H](C)C(F)(F)F)c2)c1 [Example 465] | 8.77 |
| O=C1C[C@H](C(=O)Nc2cc(-c3cccc(OC(F)(F)F)c3)n(-c3ccccc3F)n2)CN1 [Example 466] | 7.80 |
| O=C1C[C@H](C(=O)Nc2cc(-c3cccc(OC(F)(F)F)c3)n(-c3cccc(F)c3)n2)CN1 [Example 467] | 7.59 |
| O=C1C[C@H](C(=O)Nc2cc(-c3cccc(COCC(F)(F)F)c3)n(-c3cccc(F)c3)n2)CN1 [Example 468] | 7.77 |
| C[C@@H](OCc1cccc(-c2cc(NC(=O)[C@@H]3CNC(=O)C3)nn2-c2cccc(F)c2)c1)C(F)(F)F [Example 469] | 8.28 |
| CCC(C)(C)C(=O)c1cccc(-c2cc(NC(=O)[C@@H]3CNC(=O)C3)nn2-c2ccccc2)c1 [Example 470] | 8.15 |
| O=C1C[C@H](C(=O)Nc2cc(-c3cccc(COCC(F)(F)F)c3)n(-c3ccccc3F)n2)CN1 [Example 471] | 7.82 |
| C[C@@H](OCc1cccc(-c2cc(NC(=O)[C@@H]3CNC(=O)C3)nn2-c2ccccc2F)c1)C(F)(F)F [Example 472] | 8.33 |
| O=C1C[C@H](C(=O)Nc2cc(-c3cccc(OC(F)(F)F)c3)n(-c3ccccc3Cl)n2)CN1 [Example 473] | 8.12 |
| O=C1C[C@H](C(=O)Nc2cc(-c3cccc(COCC(F)(F)F)c3)n(-c3ccccc3Cl)n2)CN1 [Example 474] | 8.14 |
| C[C@@H](OCc1cccc(-c2cc(NC(=O)[C@@H]3CNC(=O)C3)nn2-c2ccccc2Cl)c1)C(F)(F)F [Example 475] | 8.51 |
| COc1cccc(-n2nc(NC(=O)[C@@H]3CNC(=O)C3)cc2-c2cccc(OC(F)(F)F)c2)c1F [Example 476] | 7.68 |
| CCOc1cccc(-n2nc(NC(=O)[C@@H]3CNC(=O)C3)cc2-c2cccc(OC(F)(F)F)c2)c1F [Example 477] | 7.60 |
| CC(C)Oc1cccc(-n2nc(NC(=O)[C@@H]3CNC(=O)C3)cc2-c2cccc(OC(F)(F)F)c2)c1F [Example 478] | 7.44 |
